From paper PMC8450399, “Expression Profiles and Functional Characterization of Chemosensory Protein 15 (HhalCSP15) in the Brown Marmorated Stink Bug Halyomorpha halys” (Frontiers in Physiology, 2021)

Legend:
[1] = target: HhalCSP15; assay: Fluorescence competitive binding assay with 1-NPN as fluorescent probe; set-up: species or system Halyomorpha halys; settings: for Ki: Ki=IC50/(1+[1-NPN]/K1-NPN), HhalCSP15 and 1-NPN 2 μM, pH 7.4, triplicate, read-out: Ki, dissociation constant; for binding ability with HhalCSP15 (in words): fluorescence binding experiments
Experimental: The binding abilities of HhalCSP15 to 43 volatiles were measured on an F-380 fluorescence spectrophotometer (Tianjin, China) using 10-nm slits and a 1-cm light path. As the fluorescent probe, N-phenyl-1-naphthylamine (1-NPN) was excited at the wavelength of 337nm, and emission spectra were recorded between 390 and 530nm. To measure the affinity of 1-NPN to the HhalCSP15 protein, a 2-μM solution of purified protein in 50-mM Tris-HCl at pH 7.4 was titrated with aliquots of 1-mM 1-NPN dissolved in methanol to final concentrations ranging from 2 to 16μM.
[…] Dissociation constants of the competitors were calculated by the equation Ki=IC50/(1+[1-NPN]/K1-NPN), where IC50 is the concentration of ligands halving the initial fluorescence value of 1-NPN, [1-NPN] is the free concentration of 1-NPN, and K1-NPN is the dissociation constant of the HhalCSP15/1-NPN complex.

[2] = test system: Halyomorpha halys antennae; assay: Electroantennography (EAG) recordings; settings: 10 μl of 100 μg/μl in paraffin oil; for EAG response of antennae (in words; comparison among nymphs, females, males): third instar nymphs and 1- to 3-day old male and female adults, solvent-corrected
Experimental: The antennal responses of H. halys to the three ligands of […]15 were evaluated using conventional EAG methods as described in previous study ([Wang et al., 2020]). Briefly, antennae of the third instar nymphs and 1- to 3-day old male and female adults were dissected, and a few terminal segments at the distal end were excised. The treated antennae were attached to electrode holders with electrode gel. Ten microliters of tested chemicals (100μg/μl, diluted in paraffin oil) were applied to filter paper strips (1.0cm×2.0cm) and inserted into a glass Pasteur pipette as a cartridge. The test cartridge was connected to a stimulus controller (CS-55; Syntech, Kirchzarten, Germany) that generated a 0.5s stimulus at 30s intervals, with a constant flow of 10ml/s. The signals generated by the antennae were recorded using EAG Pro (Syntech). A blank stimulus (solvent control) was presented before testing the compound. For each compound, EAG responses were recorded from eight antennae of different insects. The EAG responses elicited by the test odor stimuli were corrected by subtracting EAG response from the solvent control. The corrected EAG data were statistically analyzed using ANOVA followed by Tukey's HSD test.

Ki [1] | binding ability with HhalCSP15 (in words) [1] | SMILES | EAG response of antennae (in words; comparison among nymphs, females, males) [2] | also measured
11.9 ± 0.6 µM | strong binding abilities | CC(=O)/C=C/C1=C(C)CCCC1(C)C [β-Ionone] | elicit an EAG response in both nymph and adult H. halys antennae | EAG response of antennae (in words; comparison among nymphs, females, males) ([2]; listed as β-ionone): significantly greater responses in females compared with males and nymphs
– | – | c1ccc(Nc2cccc3ccccc23)cc1 [1-NPN, N-phenyl-1-naphthylamine, reference compound] | – | Kd ([1]; 2 μM protein in 50 mM Tris-HCl pH 7.4 titrated with 1-NPN 2 to 16 μM, read-out: dissociation constant of the HhalCSP15/1-NPN complex): 9.36 µM
10.5 ± 0.8 µM | strong binding abilities | CC/C=C\CCOC(=O)c1ccccc1 [cis-3-Hexen-1-yl benzoate] | – | EAG response compared among ligands (in words) ([2]; nymphs and adults): highest EAG response among all ligands in both nymphs and adults; EAG response of antennae (in words; comparison among nymphs, females, males) ([2]; listed as Cis-3-hexen-1-yl benzoate): significantly greater responses in females compared with males and nymphs; EAG response of antennae (in words; comparison among nymphs, females, males) ([2]; listed as cis-3-hexen-1-yl benzoate): elicit an EAG response in both nymph and adult H. halys antennae
– | could not bind | CCCCCCCCCCCCC [Tridecane] | – | –
– | could not bind | CCCCCCC/C=C/C=O [trans-2-Decenal] | – | –
9.6 ± 0.4 µM | identified as a binding ligand | CCC\C=C/C=C/C=C/C(=O)OC [Methyl (2E,4E,6Z)-decatrienoate] | significantly greater EAG responses in adults compared with nymphs | –
